Measured values taken from PMC10733463, “Berberine-microbiota interplay: orchestrating gut health through modulation of the gut microbiota and metabolic transformation into bioactive metabolites” (Frontiers in Pharmacology, 2023).
Where two headings read alike, the source gives them in different places.

Tests used:
[1] = UPLC-MS/MS quantification of berberine and metabolites in ileal and caecal content; format: in vivo, Ross 308 broiler chickens; conditions: 21 days
Description: The study was undertaken following the guidelines of the ethics committee of the Faculty of Veterinary Medicine and Bioscience Engineering, Ghent University, in accordance with the EU Directive 2010/63/EU. One-day-old Ross 308 male broilers were obtained from a local hatchery and housed in pens on wood shavings. They were allotted into 4 groups, with three replicate pens per group each housing 8 chickens. The animals were not vaccinated. Water and commercial starter feed (day 1–12, FARM 1 Mash, Country’s Best, Versele Laga, Deinze, Belgium) or grower (day 13–21, FARM 2 mash, Country’s Best, Versele Laga, Deinze, Belgium) were provided ad libitum. The control group received the standard non-supplemented diets, whereas the chickens in other groups were fed the same feed supplemented with 0.1, 0.5 or 1 g berberine/kg feed throughout the whole trial period. At day 21, 4 birds per pen were weighted then euthanized by sodium pentobarbital injection for sampling. Individual jejunal, ileal, caecal and colonic contents were stored at −20°C for microbiota composition analysis (16S rRNA gene sequencing). Additionally, ileal and caecal content samples were collected and stored at −20°C for berberine and berberine-derived metabolite quantification. Duodenal tissue samples were collected and fixed in 4% phosphate buffered formaldehyde for histological analysis. Blood samples were collected in heparin tubes and centrifuged at 524 g for 10 min to recover the plasma fraction, which was further mixed with 17 mg/mL L-ascorbic acid for dihydroberberine stabilization, and stored at −20°C for berberine and berberine-derived metabolite quantification.
The column temperature was maintained at 25°C. The autosampler temperature was set at 10°C.
250 mg of ileal or caecal content was weighed in a 15 mL polypropylene centrifuge tube and 250 µL of ascorbic acid 170 mg/mL solution was added for stabilization of dihydroberberine, followed by brief vortexing. Subsequently, 25 µL of an internal standard solution containing 250 μg/mL of berberine-d6 and 2.5 μg/mL tetrahydropalmatine were added, followed by brief vortexing. A 2.5 mL volume of extraction solvent was then added, consisting of a 1% (v/v) formic acid solution in methanol. The sample was put on a rotary shaker set at 80 rpm for 20 min, followed by centrifugation (3,720 g, 10 min, 4°C). The supernatant was then diluted, by a factor 5 for measurement of low abundance components, and by a factor 2,000 for measurement of high abundance components. The 1/5 diluted sample extract was prepared directly in an autosampler vial as follows: 200 µL sample extract were mixed with 100 µL ascorbic acid 170 mg/mL solution and 700 µL Milli-Q water. For the 1/2,000 diluted sample extract, an intermediate 1/100 sample dilution was prepared by combining 500 µL sample extract and 49.5 mL of Milli-Q water. 50 μL was then transferred in an autosampler vial followed by the addition of 950 µL of Milli-Q water. For both dilutions, a 5 µL sample aliquot was injected onto the UPLC-MS/MS apparatus. Quantification was based on the ratio of the analyte peak area compared to the peak area of the internal standard tetrahydropalmatine for 1/5 diluted sample extracts, and on the ratio of the analyte peak area compared to the peak area of the internal standard berberine-d6 for 1/2,000 diluted sample extracts.
Calibration standards and quality control samples were prepared as follows: 250 mg of blank ileal or caecal content were supplemented with 250 µL of ascorbic acid 170 mg/mL solution, 25 µL mixed solution of berberine and metabolites (with the exception of dihydroberberine) at different levels, 25 µL of dihydroberberine solution, stabilized with 17 mg/mL ascorbic acid, at different levels and 25 µL of an internal standard solution containing 0.625 μg/mL of berberine-d6 and 2.5 μg/mL tetrahydropalmatine. The calibration curve was in the 62.5–5,000 ng/g range, and included 62.5, 125, 250, 500, 1,000, 2,500, and 5,000 ng/g levels. […]

[2] = rats, 2021, cited from earlier work; for Total recovery in feces: ref Ma et al., 2013, Feng et al.
B. coccoides (DSM 935) = conditions: Blautia coccoides, 10 µg/mL, pH 6
[3] = oral administration of berberine, ref Feng et al.

Compound: COc1ccc2cc3[n+](cc2c1O)CCc1cc2c(cc1-3)OCO2 [Berberrubine, berberrubine chloride]
- Ratio caecum / ileum (concentration) ([1]; 0.1 g berberine/kg feed): 21.43
- Ratio caecum / ileum (concentration) ([1]; 0.5 g berberine/kg feed): 29.98
- Ratio caecum / ileum (concentration) ([1]; 1 g berberine/kg feed): 63.80
- Excretion in bile [2, 3]: 2.6%
- Excretion in feces [2, 3]: 18.6%
- Excretion in urine [2, 3]: 1.2%
- Total recovery in feces ([2]; oral berberine 48.2 mg/kg): 18.6%
- Total recovery in feces ([2]; oral berberine 200 mg/kg): 1.14%
- Log2(fold change) of metabolite response at 48 h, B. coccoides pure culture over berberine-medium (B. coccoides (DSM 935)): 1.96

Compound: COc1ccc2cc3[n+](cc2c1OC)CCc1cc2c(cc1-3)OCO2 [Berberine, Berberine chloride]
- Ratio caecum / ileum (concentration) ([1]; 0.1 g berberine/kg feed): 0.07
- Ratio caecum / ileum (concentration) ([1]; 0.5 g berberine/kg feed): 0.14
- Ratio caecum / ileum (concentration) ([1]; 1 g berberine/kg feed): 0.22
- Total recovery in feces ([2]; oral berberine 48.2 mg/kg): 8.4%
- Total recovery in feces ([2]; oral berberine 200 mg/kg): 19.05%

Compound: COc1cc2c(cc1O)CC[n+]1cc3c(OC)c(OC)ccc3cc1-2 [Jatrorrhizine, Jatrorrhizine chloride]
- Ratio caecum / ileum (concentration) ([1]; 0.1 g berberine/kg feed): 0.31
- Ratio caecum / ileum (concentration) ([1]; 0.5 g berberine/kg feed): 0.49
- Ratio caecum / ileum (concentration) ([1]; 1 g berberine/kg feed): 0.72
- Log2(fold change) of metabolite response at 48 h, B. coccoides pure culture over berberine-medium (B. coccoides (DSM 935)): -2.05
